In patent publication US20170313604A1, “Wastewater Treatment Method” (PeroxyChem LLC, priority 2016, published 2017):

System: E. coli
Test: Full scale trial of peracetic acid disinfection at a wastewater treatment plant (E. coli by IDEXX Colisure method)
Design: species or system Escherichia coli
Experimental: A full scale trial of peracetic acid (15% PAA:23% hydrogen peroxide) disinfection was performed at a wastewater treatment plant in Tennessee, USA. The wastewater contained a high level of colored, aromatic molecules discharged from industrial sources involved in the processing of cotton seeds and other sources of lignin and bio-based polymers. The water quality, and as a result the peracetic acid (PAA) demand, was heavily dependent upon the cyclic discharge rates from these industrial sources. Thus, the PAA efficacy in reducing bacterial concentrations within the wastewater was not only dependent upon the overall flow rate of the WWTP, but also upon the time-dependent water quality. The time-dependent water quality demand on PAA at the treatment plant required the inclusion of a PAA feed-forward dosing scheme to insure that the proper dosing of PAA needed to achieve the target microbial reduction was maintained.
Initial testing consisted of collecting continuous, on-line data for four wastewater quality parameters: color, chemical oxygen demand (COD), oxidation/reduction potential (ORP) and UV transmittance (UVT) at 254 nm. Peracetic acid was measured in situ via the Prominent Dulcotest CTE sensor. The sensor was a membrane-capped amperometric, two electrode sensor for the measurement of PAA in aqueous solution. […] PAA contained in the sample water diffused through the membrane, causing a potential difference between electrodes. The primary signal was converted by the amplifier electronics of the sensor into a 4-20 mA, temperature corrected, output signal, which was optimally controlled via the DULCOMETER diaLog DACa controller. Wastewater color was measured on-line utilizing a ChemScan UV-3151 Series Analyzer with a flow-through sensor. The analyzer drew a sample of wastewater from the untreated side of the disinfection channel, representative of the influent wastewater, to the main unit, which was located in the control house. Wastewater COD and % UVT (% ultraviolet transmittance at 254 nm) were measured on-line using a submersible YSI CarboVis model 701 unit. E. coli analysis were performed by a third-party laboratory, using the IDEXX Colisure method.
The data for each quality parameter then was correlated to PAA demand, accounting for wastewater flow rate. E. coli concentrations were measured at the inflow to the disinfection channel, at the mid-point of the disinfection channel and at the outflow.
Subsequent testing was performed with wastewater color as the water quality parameter for feed-forward control of the PAA dose (PAAdemand), coupled with flow pacing.
At least three cycles of water quality (minimum to maximum wastewater color) were tested with flow rates ranging from 50 to 130 MGD. Sixty three E. coli concentrations were measured during this period. […]

[1] = effluent after PAA dosing with color feed-forward control plus flow pacing, flow 50 to 130 MGD, power-outage measurement eliminated

## CC(=O)OO [PAA, peracetic acid]
At demand neutral performance, this wastewater
  PAAset point to achieve the desired E. coli reduction: 7 ppm
Below the permitted daily maximum, the exception occurred in a power outage with no PAA dosed
  E. coli concentration (all but one of sixty three measurements): < 487 cfu/100 mL
[1]
  E. coli arithmetic mean concentration: 18 cfu/100 mL
  E. coli geomean concentration: 12 cfu/100 mL
